Data set [1] relates to dinitrochlorobenzene-eczema. The data set is described as follows: antiphlogistic activity, dinitrochlorobenzene-eczema method. In kind it is in vivo, guinea pigs. The conditions noted are these: Cavia porcellus, topical; ethanolic 5% solution on shaved flanks, 30 minutes before 1% dinitrochlorobenzene; visual evaluation after 22 hours; read-out: Inhibition of dinitrochlorobenzene-eczema over control. The procedure:
The antiphlogistic activity was ascertained by the dinitrochlorobenzene-eczema method [see A. I. Scott, Brit. J. Dermatol. 77, 586 (1965)].
The compound to be tested was applied in the form of an ethanolic 5% solution to the shaved flanks of a group of 10 guinea pigs which has been sensitized with dinitrochlorobenzene. An analogous control group was treated with only ethanol. The treatment was effected 30 minutes prior to release of the allergic reaction with a 1% solution of dinitrochlorobenzene in acetone. The results were visually evaluated 22 hours thereafter.

The test system of data set [2] is sebaceous gland excretion. The data set is described as follows: sebaceous gland excretion-inhibiting activity, glass block method (refatting of forehead skin). In kind it is in vivo, human. Particulars: ethanolic 5% solution, 0.25 ml on half of forehead; for Average extinction values, Difference: difference between treated and controls (ethanol); for Average extinction values, Treated: skin fat removed after 90 minutes, refatting measured after three additional hours, treated group. As for the experimental part:
The sebaceous gland excretion-inhibiting activity was ascertained by the glass block method described by Schaefer and Kuhn-Bussius in Arch. Klin. exper. Derm. 238, 429-435 (1970). Small glass blocks, the facets of which have been roughened or frosted, are pressed against the skin surface where the amount of skin fat is measured. The skin fat or sebum transferred from the skin to the glass facet makes the blocks more translucent, and the increase in translucence is directly proportional to the amount of sebum present in the skin area. The translucence is measured in a photometer. Prior to measurement of the degree of refating of the skin, the skin fat was removed with a plastic foil.
0.25 ml of an ethanolic 5% solution of the compound to be tested was applied to half of the forehead of 5 to 10 human test subjects, while 0.25 ml of ethanol was applied to half of the forehead of a group of 5 to 10 control subjects. After 90 minutes the skin fat was removed with the plastic foil, and after three additional hours the degree of refatting was determining with the aid of the small glass blocks referred to above.

The nature of data set [3]: acute toxicity, LD50 mouse i.p. Particulars: in vivo, ip.

With `CCCCCCCCCCCCCCCCOC(=O)CNC(C)=O` [A, n-acetyl-glycine hexadecyl ester], in data set [1], the inhibition in vivo at 5 % came to 46%. In data set [2], the “Average extinction values, Difference” value came to 9.5 and the “Average extinction values, Treated” value is 75.5.
As for `CCCCCCCCCCCCCCCCOC(=O)C(C)NC(C)=O` (stereo not drawn) [B, n-acetyl-alanine hexadecyl ester], the inhibition in vivo at 5 % in data set [1] was found to be 19%. For the same compound, in data set [2], the “Average extinction values, Difference” value stood at 7.5 and the “Average extinction values, Treated” value is 74.0.
On to `CCCCCCCCCCCCCCCCOC(=O)CNC(=O)c1ccccc1` [Compound C, n-benzoyl-glycine hexadecyl ester], for which the inhibition in vivo at 5 % in data set [1] was 28%. Further, in data set [2], the “Average extinction values, Difference” value worked out at 16.5 and the “Average extinction values, Treated” value turned out to be 78.5. Besides, the LD50 (commonly the dose expected to kill half of the subjects tested) in data set [3] was over 4000 mg/kg.
For `CCCCCCCCCCCCCCCCOC(=O)CN(C)C(C)=O` [D, n-acetyl-sarcosine hexadecyl ester], the inhibition in vivo at 5 % in data set [1] turned out to be 20%. Moreover, in data set [2], the “Average extinction values, Difference” value came out at 9.0 and the “Average extinction values, Treated” value is given as 86.5.
Regarding `CCCCCCCCCCCCCCCCOC(=O)CNC=O` [F, n-formyl-glycine hexadecyl ester], the inhibition in vivo at 5 % in data set [1] amounted to 50%.
As for `CCCCCCCCCCCCCCCCOC(=O)CNC(=O)CC` [G, n-propionyl-glycine hexadecyl ester], the inhibition in vivo at 5 % in data set [1] turned out to be 34%.
As for `CCCCCCCCCCCCCC(=O)NCC(=O)O` [H, n-tetradecanoyl-glycine], the inhibition in vivo at 5 % in data set [1] amounted to 38%.
With `O=C(O)CCCNC(=O)c1ccc(-c2ccccc2)cc1` [I, n-(4'-phenyl-benzoyl)-4-amino-butyric acid], the inhibition in vivo at 5 % in data set [1] is 36%.
As to `CCCCCCCCCCCCCCCCOC(=O)CCNC(C)=O` [J, n-acetyl-β-alanine hexadecyl ester], the inhibition in vivo at 5 % in data set [1] amounted to 35%.
